Test results: ChEMBL document CHEMBL6127051, “Hydrazinecarboxamides: Comprehensive review of their anticancer, anticonvulsive, anti-inflammatory, enzyme inhibition, antioxidant and other activities” (Eur J Med Chem, 2024)
One block for each compound: values may come before it.

What was measured:
Mus musculus [1] = assay: Anticonvulsant activity in ip dosed MES induced mouse model measured after 4 hrs; format: functional
Alpha glucosidase = Alpha glucosidase (Homo sapiens, UniProt O43451+P10253+P14410+Q2M2H8); assay: Inhibition of Alpha glucosidase (unknown origin); format: protein assay
[2] = Inhibition of alpha amylase (unknown origin); set-up: species or system Homo sapiens
HEK293 = assay: Antiproliferative activity against HEK293 cells assessed as inhibition of cell growth incubated for 48 hrs by CCK8 assay; format: functional, cell-based; conditions: Homo sapiens, HEK293, 48 h
NCI-H1563 = assay: Antiproliferative activity against human NCI-H1563 cells assessed as reduction in cell growth incubated for 24 hrs by MTT assay; format: functional, cell-based; conditions: NCI-H1563, 24 h
769-P = assay: Antiproliferative activity against human 769-P cells assessed as reduction in cell growth incubated for 48 hrs by MTT assay; format: functional, cell-based
HepG2 [3] = assay: Antiproliferative activity against human HepG2 cells assessed as reduction in cell growth incubated for 48 hrs by MTT assay; format: functional, cell-based; conditions: HepG2, 48 h
HepG2 [4] = assay: Antiproliferative activity against human HepG2 cells assessed as reduction in cell growth incubated for 24 hrs by MTT assay; format: functional, cell-based; conditions: HepG2, 24 h
AR-42J cell line = assay: Antiproliferative activity against AR42J cells assessed as reduction in cell viability incubated for 24 hrs by MTT colorimetric assay; format: functional, cell-based; conditions: Rattus norvegicus
Mus musculus [5] = assay: Anticonvulsant activity in po dosed scPTZ induced Albino mouse seizure model measured after 4 hrs; format: functional
[6] = Inhibition of Lipoxygenase (unknown origin); set-up: species or system Homo sapiens
Mus musculus [7] = assay: Anticonvulsant activity in ip dosed MES induced mouse model measured after 2 hrs; format: functional
MCF7 [8] = assay: Antiproliferative activity against human MCF7 cells assessed as reduction in cell growth incubated for 48 hrs by MTT assay; format: functional, cell-based; conditions: MCF7, 48 h
HepG2 [9] = assay: Antiproliferative activity against human HepG2 cells assessed as inhibition of cell growth incubated for 48 hrs by MTT assay; format: functional, cell-based; conditions: HepG2, 48 h
MCF7 [10] = assay: Antiproliferative activity against human MCF7 cells assessed as reduction in cell viability measured after 48 hrs by MTT assay; format: functional, cell-based; conditions: MCF7, 48 h
MKN-45 = assay: Antiproliferative activity against human MKN-45 cells assessed as inhibition of cell growth by MTT assay; format: functional, cell-based
P388 = assay: Cytotoxicity against mouse P388 cells assessed as reduction in cell viability; format: functional, cell-based
DNA topoisomerase 1 = DNA topoisomerase 1 (Homo sapiens, UniProt P11387); assay: Inhibition of DNA topoisomerase I (unknown origin)
Chain of DNA topoisomerase 1 (P11387 whole entry): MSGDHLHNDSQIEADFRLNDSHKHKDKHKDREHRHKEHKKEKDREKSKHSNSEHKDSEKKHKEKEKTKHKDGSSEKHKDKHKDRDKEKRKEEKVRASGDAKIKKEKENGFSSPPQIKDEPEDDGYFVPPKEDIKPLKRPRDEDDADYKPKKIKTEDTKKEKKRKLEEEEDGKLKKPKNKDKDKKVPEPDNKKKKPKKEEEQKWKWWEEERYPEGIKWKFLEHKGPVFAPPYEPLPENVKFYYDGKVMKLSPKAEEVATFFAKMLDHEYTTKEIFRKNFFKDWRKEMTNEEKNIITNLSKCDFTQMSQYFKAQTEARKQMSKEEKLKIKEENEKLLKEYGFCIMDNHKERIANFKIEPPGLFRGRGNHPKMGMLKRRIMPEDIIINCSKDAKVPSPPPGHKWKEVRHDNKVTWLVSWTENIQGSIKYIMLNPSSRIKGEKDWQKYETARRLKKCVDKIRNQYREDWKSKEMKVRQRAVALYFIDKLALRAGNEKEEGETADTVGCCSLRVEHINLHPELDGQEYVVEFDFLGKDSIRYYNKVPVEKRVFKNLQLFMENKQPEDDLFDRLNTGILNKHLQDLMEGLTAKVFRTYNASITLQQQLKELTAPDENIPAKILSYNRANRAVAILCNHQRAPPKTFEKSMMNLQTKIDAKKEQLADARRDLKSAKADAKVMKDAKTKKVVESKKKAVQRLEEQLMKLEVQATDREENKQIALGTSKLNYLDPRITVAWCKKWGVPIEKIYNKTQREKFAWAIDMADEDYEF

Cholinesterase = Cholinesterase (Equus caballus, UniProt P81908); assay: Inhibition of equine serum BChE using butyrylthiocholine iodide as substrate measured after 15 mins by Ellman's method
Chain of Cholinesterase (P81908 whole entry): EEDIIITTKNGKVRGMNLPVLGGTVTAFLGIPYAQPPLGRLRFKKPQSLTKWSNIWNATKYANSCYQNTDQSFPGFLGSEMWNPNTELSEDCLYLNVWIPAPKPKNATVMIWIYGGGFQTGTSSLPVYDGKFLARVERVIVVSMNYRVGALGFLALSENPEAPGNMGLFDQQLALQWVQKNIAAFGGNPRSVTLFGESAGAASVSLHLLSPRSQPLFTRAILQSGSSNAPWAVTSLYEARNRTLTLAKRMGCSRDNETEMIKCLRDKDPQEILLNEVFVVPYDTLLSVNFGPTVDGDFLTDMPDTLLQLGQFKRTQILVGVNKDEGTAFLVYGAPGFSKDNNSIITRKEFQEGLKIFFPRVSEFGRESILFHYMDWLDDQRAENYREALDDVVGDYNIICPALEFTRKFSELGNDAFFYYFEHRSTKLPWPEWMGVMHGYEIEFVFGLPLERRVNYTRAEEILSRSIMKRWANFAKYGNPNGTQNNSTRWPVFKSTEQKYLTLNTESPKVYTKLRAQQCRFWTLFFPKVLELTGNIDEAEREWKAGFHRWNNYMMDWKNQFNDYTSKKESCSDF

Acetylcholinesterase = Acetylcholinesterase (Electrophorus electricus, UniProt O42275); assay: Inhibition of electric eel AChE using acetylthiocholine iodide as substrate incubated for 15 mins by Ellman's method
Chain of Acetylcholinesterase (O42275 whole entry): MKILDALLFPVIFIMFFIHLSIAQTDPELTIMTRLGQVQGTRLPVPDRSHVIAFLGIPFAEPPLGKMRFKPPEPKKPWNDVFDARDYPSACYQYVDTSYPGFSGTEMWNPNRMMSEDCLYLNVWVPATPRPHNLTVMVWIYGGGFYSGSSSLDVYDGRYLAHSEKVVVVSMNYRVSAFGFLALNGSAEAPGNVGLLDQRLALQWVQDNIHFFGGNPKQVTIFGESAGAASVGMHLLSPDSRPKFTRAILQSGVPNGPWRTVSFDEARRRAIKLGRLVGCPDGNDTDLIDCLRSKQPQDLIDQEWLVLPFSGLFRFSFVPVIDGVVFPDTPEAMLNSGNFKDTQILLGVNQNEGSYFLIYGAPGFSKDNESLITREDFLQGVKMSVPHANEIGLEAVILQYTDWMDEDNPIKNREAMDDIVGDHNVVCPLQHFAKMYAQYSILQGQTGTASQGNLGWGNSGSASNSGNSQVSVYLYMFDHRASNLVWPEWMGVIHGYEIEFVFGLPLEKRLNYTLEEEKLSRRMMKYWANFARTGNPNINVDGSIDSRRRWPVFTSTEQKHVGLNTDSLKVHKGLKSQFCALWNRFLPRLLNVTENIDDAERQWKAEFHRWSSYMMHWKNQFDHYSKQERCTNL

PC-3 = assay: Antiproliferative activity against human PC-3 cells assessed as inhibition of cell growth at 10 uM relative to control; format: functional; set-up: scale not given: the % may be the effect or the level left; conditions: pooled result: one value given for 4 cell lines, strains, targets or settings
UO-31 = assay: Antiproliferative activity against human UO-31 cells assessed as inhibition of cell growth at 10 uM relative to control; format: functional; set-up: scale not given: the % may be the effect or the level left
[11] = Half life in rat at 2 mg/kg, po by LC-MS/MS analysis; format: ADME, organism-based; conditions: in vivo
[12] = target: Polyunsaturated fatty acid 5-lipoxygenase (Homo sapiens, UniProt P09917); assay: Inhibition of 5-LOX (unknown origin)
Chain of Polyunsaturated fatty acid 5-lipoxygenase (P09917 whole entry): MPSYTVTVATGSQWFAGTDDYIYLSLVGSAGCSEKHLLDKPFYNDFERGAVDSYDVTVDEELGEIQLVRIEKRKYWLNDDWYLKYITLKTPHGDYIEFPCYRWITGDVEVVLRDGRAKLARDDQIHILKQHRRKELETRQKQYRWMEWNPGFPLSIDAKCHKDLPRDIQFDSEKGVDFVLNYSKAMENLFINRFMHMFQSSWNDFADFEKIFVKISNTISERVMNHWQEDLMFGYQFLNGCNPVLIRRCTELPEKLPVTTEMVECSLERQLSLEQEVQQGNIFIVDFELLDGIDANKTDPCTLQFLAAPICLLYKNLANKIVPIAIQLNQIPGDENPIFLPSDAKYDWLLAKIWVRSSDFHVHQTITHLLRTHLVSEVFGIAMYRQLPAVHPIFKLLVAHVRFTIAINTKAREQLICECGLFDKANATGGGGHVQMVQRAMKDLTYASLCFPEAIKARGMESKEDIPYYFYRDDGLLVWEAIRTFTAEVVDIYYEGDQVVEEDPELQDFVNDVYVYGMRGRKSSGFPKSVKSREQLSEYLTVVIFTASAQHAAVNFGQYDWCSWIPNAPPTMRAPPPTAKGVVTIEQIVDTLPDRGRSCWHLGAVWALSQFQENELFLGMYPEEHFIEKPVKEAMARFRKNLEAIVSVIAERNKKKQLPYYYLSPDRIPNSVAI

[13] = Tmax in rat at 2 mg/kg, po by LC-MS/MS analysis; format: ADME, organism-based; conditions: in vivo
[14] = Antiplatelet activity in human platelets assessed as inhibition of collagen-induced platelet aggregation at 20 uM relative to control; format: functional; set-up: scale not given: the % may be the effect or the level left
[15] = Antiplatelet activity in human platelets assessed as inhibition of collagen-induced platelet aggregation at 10 uM relative to control; format: functional; set-up: scale not given: the % may be the effect or the level left

Compound: NNC(=O)Nc1ccccc1Cl
- Activity (Mus musculus [1]): 66.6%

Compound: CCNC(=O)NNC(=O)c1ccc([N+](=O)[O-])cc1
- IC50 (HEK293): 1500 µM
- IC50 (NCI-H1563): 336 µM
- IC50 (769-P): 4780 µM
- IC50 (HepG2 [3]): 1930 µM
- IC50 (HepG2 [4]): 7.06 µM

Compound: O=C(CSc1nc2ccccc2n2cnnc12)NNC(=O)NC1CCCCC1
- ED50 (Mus musculus [5]): 30 mg/kg

Compound: Cc1ccc(NC(=O)NN)cc1
- Activity (Mus musculus [7]): 100%

Compound: O=C(Nc1ccccc1)NN1C(=O)c2c(c3c4cccc(O)c4n([C@H]4O[C@H](CO)[C@@H](O)[C@H](O)[C@H]4O)c3c3[nH]c4c(O)cccc4c23)C1=O
- IC50 (MKN-45): 0.035 µM
- IC50 (P388): 0.035 µM
- IC50 (DNA topoisomerase 1): 0.25 µM

Compound: CCCCCCCCCCCCCNC(=O)NNC(=O)c1ccc(C(F)(F)F)cc1
- IC50 (Cholinesterase): 58 µM
- IC50 (Acetylcholinesterase): 27 µM

Compound: CC(=O)Nc1nc(C)c(C(=O)NNC(=O)Nc2ccccc2)s1
- Activity (PC-3): 14.8%
- Activity (UO-31): 14.8%

Compound: O=C(NNc1ccnc2ccccc12)Nc1ccccc1
- Activity [14]: 10.6%
- Activity [15]: 11.7%

Continued, in another order:

- IC50 (Alpha glucosidase): 94.33 µM
- IC50 [2]: 53 µM
Compound: Cc1ccc(C[C@@H]2C[C@H]3C(=O)N(C)C4(C[C@H](C)CC[C@H]4C(C)C)N3O2)c(OCC(=O)NNC(=O)Nc2cccc3ccccc23)c1 (stereo partly drawn)

- IC50 [2]: 64.8 µM
Compound: O=C(CNc1nc2ccccc2n1C(=O)Nc1ccccc1)NNC(=O)Nc1ccccc1
- IC50 (AR-42J cell line): 304 µM

- IC50 [6]: 60 µM
Compound: CC(C(=O)O)c1cccc(Oc2ccccc2)c1 (stereo not drawn) [FENOPROFEN]

- IC50 (MCF7 [8]): 10.3 µM
- IC50 (HepG2 [9]): 7.73 µM
Compound: O=C(NNC(=O)C(=O)Nc1ccccc1)Nc1ccccc1

- IC50 (MCF7 [10]): 0.012 µM
Compound: COc1cc(/C=C2\SC(=S)N(n3c(=O)[nH]c4ccccc4c3=O)C2=O)ccc1OC(=O)c1ccccc1

- half-life [11]: 3.3 h
- IC50 [12]: 5 µM
- Tmax [13]: 1 h
Compound: O=C1NCCN(c2ccccc2)N1
